Experimental data taken from ChEMBL document CHEMBL3431459, “Roche carnitine palmitoyltransferase modulator screening data (supplementary data associated with the publication CHEMBL2216752)”.
Values after ≈ are worked out from the molar mass of the structure shown.

Experiments:
[1] = SUPPLEMENTARY: PAMPA permeability assay; assay type: physicochemical; conditions: read-out: Permeability
[2] = target: T1, Carnitine O-palmitoyltransferase 2, mitochondrial (Homo sapiens, UniProt P23786); assay: (§1) SUPPLEMENTARY: Inhibition of Carnitine palmitoyltransferase 2
T1 sequence (P23786 whole entry): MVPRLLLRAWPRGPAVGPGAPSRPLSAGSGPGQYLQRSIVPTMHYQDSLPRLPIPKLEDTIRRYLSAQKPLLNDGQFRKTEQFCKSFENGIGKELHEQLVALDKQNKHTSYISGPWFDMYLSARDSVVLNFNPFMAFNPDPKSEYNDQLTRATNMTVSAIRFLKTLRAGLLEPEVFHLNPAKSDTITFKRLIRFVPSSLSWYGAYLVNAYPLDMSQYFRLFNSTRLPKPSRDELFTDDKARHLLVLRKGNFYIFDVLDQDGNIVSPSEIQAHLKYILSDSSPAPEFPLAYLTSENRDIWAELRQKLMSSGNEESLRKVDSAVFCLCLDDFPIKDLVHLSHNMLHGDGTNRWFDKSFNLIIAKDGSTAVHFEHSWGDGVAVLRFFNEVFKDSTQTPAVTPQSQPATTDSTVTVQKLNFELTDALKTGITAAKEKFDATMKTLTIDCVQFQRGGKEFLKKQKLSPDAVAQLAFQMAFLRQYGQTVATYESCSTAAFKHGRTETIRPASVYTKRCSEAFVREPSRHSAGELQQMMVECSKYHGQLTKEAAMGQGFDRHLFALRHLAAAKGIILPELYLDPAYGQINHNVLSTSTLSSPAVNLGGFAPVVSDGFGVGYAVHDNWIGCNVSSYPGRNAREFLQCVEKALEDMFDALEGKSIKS

[3] = target: T2, Carnitine O-palmitoyltransferase 2, mitochondrial (Rattus norvegicus, UniProt P18886); assay: as §1
T2 sequence (P18886 whole entry): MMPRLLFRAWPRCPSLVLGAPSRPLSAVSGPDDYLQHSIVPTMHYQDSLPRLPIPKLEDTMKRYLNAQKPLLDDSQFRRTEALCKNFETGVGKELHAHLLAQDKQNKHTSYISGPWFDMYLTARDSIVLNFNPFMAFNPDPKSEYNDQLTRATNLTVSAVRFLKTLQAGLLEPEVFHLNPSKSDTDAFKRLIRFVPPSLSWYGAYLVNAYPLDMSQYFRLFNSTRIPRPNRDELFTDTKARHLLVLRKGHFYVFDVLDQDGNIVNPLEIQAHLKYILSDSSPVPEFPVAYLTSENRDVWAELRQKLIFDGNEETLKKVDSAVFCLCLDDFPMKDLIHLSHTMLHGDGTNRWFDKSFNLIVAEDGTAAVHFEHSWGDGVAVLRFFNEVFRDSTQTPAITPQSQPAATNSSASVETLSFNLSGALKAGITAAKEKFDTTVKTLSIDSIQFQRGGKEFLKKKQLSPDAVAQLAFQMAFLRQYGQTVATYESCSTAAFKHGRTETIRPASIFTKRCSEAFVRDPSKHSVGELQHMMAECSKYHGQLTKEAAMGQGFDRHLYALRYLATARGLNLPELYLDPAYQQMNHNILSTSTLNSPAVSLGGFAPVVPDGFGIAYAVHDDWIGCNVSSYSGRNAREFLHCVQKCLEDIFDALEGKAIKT

[4] = target: T3, Carnitine O-palmitoyltransferase 1, liver isoform (Rattus norvegicus, UniProt P32198); assay: (§2) SUPPLEMENTARY: Inhibition of Carnitine palmitoyltransferase 1, liver isoform
T3 sequence (P32198 whole entry): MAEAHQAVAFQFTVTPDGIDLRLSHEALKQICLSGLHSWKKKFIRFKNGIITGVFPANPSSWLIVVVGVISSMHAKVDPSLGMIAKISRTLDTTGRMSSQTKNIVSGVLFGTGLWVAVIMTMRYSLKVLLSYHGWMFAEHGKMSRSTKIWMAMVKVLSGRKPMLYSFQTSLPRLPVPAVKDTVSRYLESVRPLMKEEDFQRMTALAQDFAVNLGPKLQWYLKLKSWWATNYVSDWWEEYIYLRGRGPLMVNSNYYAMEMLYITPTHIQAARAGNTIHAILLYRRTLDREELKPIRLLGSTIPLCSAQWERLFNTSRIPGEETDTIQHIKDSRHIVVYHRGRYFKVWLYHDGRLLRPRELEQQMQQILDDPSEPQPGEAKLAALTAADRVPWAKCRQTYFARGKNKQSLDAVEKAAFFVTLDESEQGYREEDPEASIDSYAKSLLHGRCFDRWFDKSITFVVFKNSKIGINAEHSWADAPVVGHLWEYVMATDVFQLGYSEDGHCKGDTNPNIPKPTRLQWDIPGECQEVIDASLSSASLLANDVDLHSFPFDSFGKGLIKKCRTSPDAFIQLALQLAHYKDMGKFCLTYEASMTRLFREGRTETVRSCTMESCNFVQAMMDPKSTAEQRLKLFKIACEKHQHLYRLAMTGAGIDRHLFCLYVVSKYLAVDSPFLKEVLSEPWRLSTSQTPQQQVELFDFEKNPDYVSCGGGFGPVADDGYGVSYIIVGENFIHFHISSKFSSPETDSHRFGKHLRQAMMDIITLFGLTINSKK

[5] = target: T4, Carnitine O-palmitoyltransferase 1, liver isoform (Homo sapiens, UniProt P50416); assay: as §2
T4 sequence (P50416 whole entry): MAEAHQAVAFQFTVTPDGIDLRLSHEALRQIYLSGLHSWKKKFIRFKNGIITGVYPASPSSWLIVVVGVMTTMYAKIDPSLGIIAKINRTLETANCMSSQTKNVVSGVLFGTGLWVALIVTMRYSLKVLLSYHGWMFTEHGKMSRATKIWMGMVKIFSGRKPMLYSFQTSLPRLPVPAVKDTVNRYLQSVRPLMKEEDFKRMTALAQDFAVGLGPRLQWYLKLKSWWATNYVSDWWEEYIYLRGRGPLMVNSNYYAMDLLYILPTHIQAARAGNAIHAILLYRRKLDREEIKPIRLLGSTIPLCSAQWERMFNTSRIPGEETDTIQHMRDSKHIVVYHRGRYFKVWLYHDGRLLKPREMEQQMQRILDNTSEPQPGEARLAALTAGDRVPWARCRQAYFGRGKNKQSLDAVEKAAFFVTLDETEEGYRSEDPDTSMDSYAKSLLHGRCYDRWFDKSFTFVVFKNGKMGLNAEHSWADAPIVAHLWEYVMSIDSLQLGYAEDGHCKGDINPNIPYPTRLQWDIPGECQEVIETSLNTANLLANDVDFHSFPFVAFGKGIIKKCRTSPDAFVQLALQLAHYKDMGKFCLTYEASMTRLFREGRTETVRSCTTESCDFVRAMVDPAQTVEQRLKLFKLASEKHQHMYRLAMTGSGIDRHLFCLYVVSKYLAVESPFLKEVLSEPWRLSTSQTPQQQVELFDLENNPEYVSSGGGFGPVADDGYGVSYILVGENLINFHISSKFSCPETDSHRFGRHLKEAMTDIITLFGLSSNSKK

[6] = SUPPLEMENTARY: Lipophilicity (log D) Determination by high-throughput shake-flask; assay type: physicochemical; conditions: octanol/water
[7] = SUPPLEMENTARY: Lyophilisation Solubility Assay (LYSA); assay type: physicochemical; conditions: read-out: Kinetic_solubility
[8] = target: T5, Carnitine O-palmitoyltransferase 1, muscle isoform (Homo sapiens, UniProt Q92523); assay: SUPPLEMENTARY: Inhibition of Carnitine palmitoyltransferase 1, muscle isoform; set-up: species or system Muscle tissue
T5 sequence (Q92523 whole entry): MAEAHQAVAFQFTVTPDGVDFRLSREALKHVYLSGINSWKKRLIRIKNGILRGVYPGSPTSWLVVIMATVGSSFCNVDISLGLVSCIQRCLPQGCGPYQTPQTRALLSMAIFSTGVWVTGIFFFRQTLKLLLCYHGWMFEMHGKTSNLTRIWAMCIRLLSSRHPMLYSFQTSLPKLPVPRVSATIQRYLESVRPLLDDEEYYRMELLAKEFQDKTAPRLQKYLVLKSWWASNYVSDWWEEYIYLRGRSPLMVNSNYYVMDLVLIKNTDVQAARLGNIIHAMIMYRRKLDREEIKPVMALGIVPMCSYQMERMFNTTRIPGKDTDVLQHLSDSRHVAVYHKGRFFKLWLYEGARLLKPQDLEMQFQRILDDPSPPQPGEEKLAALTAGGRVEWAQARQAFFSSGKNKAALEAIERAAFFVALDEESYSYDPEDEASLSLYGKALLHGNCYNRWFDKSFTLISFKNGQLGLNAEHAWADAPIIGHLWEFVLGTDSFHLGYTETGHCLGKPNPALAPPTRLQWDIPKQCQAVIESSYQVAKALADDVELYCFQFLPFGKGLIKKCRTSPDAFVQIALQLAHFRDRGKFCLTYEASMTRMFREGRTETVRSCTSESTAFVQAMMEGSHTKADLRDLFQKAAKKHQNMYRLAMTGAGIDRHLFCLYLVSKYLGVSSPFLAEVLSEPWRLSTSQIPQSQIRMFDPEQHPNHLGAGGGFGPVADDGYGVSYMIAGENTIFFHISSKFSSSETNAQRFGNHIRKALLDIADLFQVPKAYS

| SMILES | Papp [1] | IC50 [2] | IC50 [3] | IC50 [4] | IC50 [5] | logD [6] | solubility kinetic [7] | IC50 [8] |
| --- | --- | --- | --- | --- | --- | --- | --- | --- |
| O=C(Nc1ccc(C(=O)O)c(Cl)c1)c1ccc2c(c1)N(S(=O)(=O)c1cc(Cl)cc(Cl)c1)CC2 | 1.89 ×10⁻⁶ cm/s | 2.46 µM | 3.35 µM | 0.0651 µM | 0.0902 µM | 2.67 | 16 µg/mL (≈ 30.4 µM) | 3.83 µM |
| COc1ccc(C)cc1S(=O)(=O)N1CCCc2ccc(C(=O)Nc3ccc(C(=O)O)c(F)c3)cc21 | 1.62 ×10⁻⁶ cm/s | 4.43 µM | 8.13 µM | 0.0909 µM | 0.152 µM | 0.88 | 60 µg/mL (≈ 120 µM) | 5.18 µM |
| COc1ccc(Cl)cc1S(=O)(=O)N1CCCc2ccc(C(=O)Nc3ccc(C(=O)O)c(F)c3)cc21 | 1.77 ×10⁻⁶ cm/s | 2.8 µM | 10.2 µM | 0.0477 µM | 0.0381 µM | 0.55 | 182 µg/mL (≈ 351 µM) | 3.02 µM |
| COc1ccc(Cl)cc1S(=O)(=O)Nc1cc(C(=O)Nc2ccc(C(=O)O)cc2)cn(C)c1=O | 0.27 ×10⁻⁶ cm/s | 3.23 µM | 42.4 µM | 0.0804 µM | 0.127 µM | -0.34 | 13 µg/mL (≈ 26.4 µM) | > 100 µM |
| O=C(COc1ccccc1)N1CCNC[C@@H]1c1nc(-c2ccc3[nH]cnc3c2)no1 | 1.53 ×10⁻⁶ cm/s | > 100 µM | > 100 µM | 9.64 µM | 0.132 µM | 1.63 | 367 µg/mL (≈ 907 µM) | > 100 µM |
| CN1CCN(C(=O)COc2ccccc2)[C@@H](c2nc(-c3ccc4c(c3)CC(=O)N4)no2)C1 | 3.38 ×10⁻⁶ cm/s | 16.5 µM | 35 µM | 0.305 µM | 0.137 µM | 1.91 | 73 µg/mL (≈ 168 µM) | > 100 µM |
| O=C1Cc2cc(-c3noc([C@H]4CNCCN4C(=O)COc4ccccc4)n3)ccc2N1 | 2.77 ×10⁻⁶ cm/s | 58.9 µM | 93.5 µM | 0.306 µM | 0.105 µM | 1.09 | 312 µg/mL (≈ 745 µM) | > 100 µM |
| O=C(COc1ccccc1)N1CCCC[C@@H]1c1nc(-c2ccc(=O)[nH]c2)no1 | 4.75 ×10⁻⁶ cm/s | 97.9 µM | > 100 µM | 1.19 µM | 0.325 µM | 1.83 | 161 µg/mL (≈ 423 µM) | > 100 µM |
| CN1CCN(C(=O)COc2ccccc2)[C@@H](c2nc(-c3ccc4[nH]nnc4c3)no2)C1 | 3.75 ×10⁻⁶ cm/s | > 100 µM | > 100 µM | 0.265 µM | 0.0246 µM | 1.86 | 167 µg/mL (≈ 398 µM) | > 100 µM |
| NC(=O)c1n[nH]c2cc(-c3noc([C@H]4CCCCN4C(=O)COc4ccccc4)n3)ccc12 | 2.35 ×10⁻⁶ cm/s | > 100 µM | > 100 µM | 1.07 µM | 0.0635 µM | 3.04 | 5 µg/mL (≈ 11.2 µM) | > 100 µM |
